Patent US20240285552A1 (priority 2020, published 2024)
“Also recorded” adds a separate entry of the source. Counter-ions that a name gives are not always drawn. Like-named read-outs stand apart in the source and are kept apart here.

Legend:
[1] = tested on: SARS-CoV-2 spike pseudotyped lentivirus; assay: microbe, parasite or virus in culture; format: cell-based; settings: for Percent Inhibition of fusion of SARS-CoV-2 spike pseudotyped lentivirus with HEK293-ACE2 cells: hydrochloride
SARS-CoV-2 USA_WA1/2020 [2] = assay: microbe, parasite or virus in culture; format: cell-based
[3] = target: T1, rhACE2 and SARS-CoV-2 Spike (RBD) protein interaction (Homo sapiens, UniProt Q9BYF1); assay: Spike (RBD)-ACE2 binding assay (ELISA); design: species or system human; SARS-CoV-2; settings: for IC50: bell-shaped model, AMB, BHH
T1 construct: purchased RayBiotech CoV-SACE2-1

ACE1 [4] = target: T2, ACE1 (Homo sapiens, UniProt P12821); assay: ACE1 activity assay (colorimetric); format: biochemical; settings: hydrochloride
T2 construct: purchased Sigma-Aldrich MAK422
Procedure: ACE1 Activity Assay. ACE1 Inhibitor Screening Kit (Cat #MAK422) was purchased from Sigma-Aldrich (St. Louis, MO) and adapted to determine the effect of BHH and AMB on the enzymatic activity of ACE (Aldrich, 2022). The in vitro colorimetric assay was performed in a transparent flat-bottom 96-well plate. 50 mm and 10 mm solutions of Captropil, a known ACE1 inhibitor were used as a positive inhibitor control. Stock solutions of the compounds were prepared in 100% Dimethyl sulfoxide (DMSO) and further serially diluted in DMSO as follows: 500, 100, 50,10,5,1 and 0.5 μm for AMB and the positive control Captropil. All experiments were performed in quadruplicates. Each plate contained positive controls (1% DMSO) and blank controls with no ACE1 enzyme. Specifically, 2.5 μl of serially diluted compounds were pre-incubated with 2 μl of ACE1 protein diluted in 38 μl of 1× assay diluent buffer for about 15 mins, at room temperature (22° C.). 157.5 μl of 1×ACE1 assay buffer (197.5 μl for −ve control) was added into the 96 well plates. The solution was mixed well and incubated at 37° C. for 15-20 minutes, protected from light. After that, 40 μl of the substrate was added to each well and mixed well. The absorbance was measured immediately at 345 nm (A345) in kinetic mode for 60 minutes.

ACE1 [5] = assay: Western blotting, ACE1 expression in A549 cells; format: cell-based, human; settings: 50 μm, 24 hrs and 48 hrs
Procedure: (§1) Western blotting. A549 “Lung” cells (RRID:CVCL_COQ5) were harvested in a radioimmuno precipitation assay (RIPA) buffer (Tris 10 mM pH 7.4, containing 140 mM NaCl, 1 mM EDTA, 1 mM NaF, 0.10% SDS, 0.50% sodium deoxycholate 0.1% NP-40, 1% Triton X-100) in the presence of protease inhibitors (Thermo Fisher) at 24 hrs. and 48 hrs. Protein concentration was determined by was determined using bicinchoninic acid with bovine serum albumin as a standard (Thermo Fisher). Equal amounts of protein were loaded and separated by SDS-PAGE using 10% pre-casted gels (Biorad). Proteins were electroblotted onto nitrocellulose membranes (Bio-Rad). The blots were blocked using 5% (w/v) milk in Tris-buffered saline containing 0.5% (v/v) Tween-20. The membranes were then incubated with different antibodies. Antibodies directed against ACE1 (ab28311) and ACE2 (ab108209) were used and the GAPDH antibody was used as loading control for cell lysates. Primary and secondary antibodies were diluted in Tris-buffered saline containing (0.5% v/v) Tween-20 (TBS-T) supplemented with 5% milk. The bands were visualized by incubating the blots with enhanced chemiluminescence reagent (ECL, Biorad) and visualized using chemidoc. Band intensities were quantified by using imagelab software Biorad.

ACE2 = assay: Western blotting, ACE2 expression in A549 cells; format: cell-based, human; settings: 50 μm, 24 hrs and 48 hrs, hydrochloride
Procedure: as §1

Vero E6 cells = settings: Vero E6; at 30 μM; Example B
SARS-CoV-2 USA_WA1/2020 [6] = settings: hamster
in vitro = settings: African green monkey

T1 sequence (Q9BYF1 18-740): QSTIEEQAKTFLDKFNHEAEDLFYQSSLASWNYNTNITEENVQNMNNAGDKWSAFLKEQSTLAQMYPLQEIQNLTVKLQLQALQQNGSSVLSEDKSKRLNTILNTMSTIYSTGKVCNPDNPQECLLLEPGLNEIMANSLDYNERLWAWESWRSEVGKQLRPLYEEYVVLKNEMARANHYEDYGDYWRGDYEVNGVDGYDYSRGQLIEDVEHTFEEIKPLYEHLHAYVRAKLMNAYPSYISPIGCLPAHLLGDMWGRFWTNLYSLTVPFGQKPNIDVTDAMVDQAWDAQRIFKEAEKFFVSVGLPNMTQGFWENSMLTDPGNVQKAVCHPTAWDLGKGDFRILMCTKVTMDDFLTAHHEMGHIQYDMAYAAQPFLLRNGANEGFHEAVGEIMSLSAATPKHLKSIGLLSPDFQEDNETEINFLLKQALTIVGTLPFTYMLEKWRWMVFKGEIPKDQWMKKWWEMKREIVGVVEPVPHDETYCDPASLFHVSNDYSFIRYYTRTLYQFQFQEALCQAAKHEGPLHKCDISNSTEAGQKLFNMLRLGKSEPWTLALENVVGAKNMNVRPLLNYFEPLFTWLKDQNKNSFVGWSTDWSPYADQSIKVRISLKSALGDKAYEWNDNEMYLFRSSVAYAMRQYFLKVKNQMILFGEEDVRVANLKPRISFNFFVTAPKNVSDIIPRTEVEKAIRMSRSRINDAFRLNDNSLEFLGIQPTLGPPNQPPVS
T2 sequence (P12821 30-1306): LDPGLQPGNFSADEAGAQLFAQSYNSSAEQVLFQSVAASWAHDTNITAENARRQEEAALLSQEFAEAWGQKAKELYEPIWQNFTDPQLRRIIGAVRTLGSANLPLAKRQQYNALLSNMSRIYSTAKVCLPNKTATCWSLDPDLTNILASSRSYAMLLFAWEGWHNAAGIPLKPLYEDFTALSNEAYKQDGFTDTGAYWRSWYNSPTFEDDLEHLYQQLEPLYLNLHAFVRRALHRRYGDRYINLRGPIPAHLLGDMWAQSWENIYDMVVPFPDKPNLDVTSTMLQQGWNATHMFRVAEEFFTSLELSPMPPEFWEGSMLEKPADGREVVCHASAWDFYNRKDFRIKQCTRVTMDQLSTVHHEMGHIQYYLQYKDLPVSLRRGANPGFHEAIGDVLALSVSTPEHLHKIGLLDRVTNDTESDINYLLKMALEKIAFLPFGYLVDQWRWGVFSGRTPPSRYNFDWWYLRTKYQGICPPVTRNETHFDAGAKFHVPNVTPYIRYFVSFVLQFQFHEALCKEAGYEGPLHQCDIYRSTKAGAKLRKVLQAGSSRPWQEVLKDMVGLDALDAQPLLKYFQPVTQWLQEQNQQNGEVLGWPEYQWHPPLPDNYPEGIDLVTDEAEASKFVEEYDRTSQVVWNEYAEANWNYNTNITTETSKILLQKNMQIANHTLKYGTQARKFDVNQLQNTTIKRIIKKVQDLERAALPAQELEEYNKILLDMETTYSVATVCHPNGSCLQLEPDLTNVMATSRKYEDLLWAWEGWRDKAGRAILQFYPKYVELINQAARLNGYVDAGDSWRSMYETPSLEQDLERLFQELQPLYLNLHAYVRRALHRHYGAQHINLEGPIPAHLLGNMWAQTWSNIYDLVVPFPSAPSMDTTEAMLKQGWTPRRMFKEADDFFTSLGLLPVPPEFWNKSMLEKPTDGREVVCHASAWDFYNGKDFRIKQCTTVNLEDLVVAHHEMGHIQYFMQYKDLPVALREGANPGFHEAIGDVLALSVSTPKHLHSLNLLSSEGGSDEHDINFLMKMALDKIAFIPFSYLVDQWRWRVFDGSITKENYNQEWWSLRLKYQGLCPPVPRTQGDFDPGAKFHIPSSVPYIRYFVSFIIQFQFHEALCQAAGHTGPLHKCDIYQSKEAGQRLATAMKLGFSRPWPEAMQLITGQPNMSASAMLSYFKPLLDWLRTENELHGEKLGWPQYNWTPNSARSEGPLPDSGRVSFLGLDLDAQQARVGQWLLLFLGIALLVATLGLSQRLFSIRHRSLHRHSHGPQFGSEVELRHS

CN(Cc1cc(Br)cc(Br)c1N)C1CCCCC1 [BHH, Bromhexine hydrochloride]
Percent Inhibition of fusion of SARS-CoV-2 spike pseudotyped lentivirus with HEK293-ACE2 cells ([1]; 50 μM, Table 3): 61%
Percent Inhibition of fusion of SARS-CoV-2 spike pseudotyped lentivirus with HEK293-ACE2 cells ([1]; 100 μM, Table 3): 76%
inhibition at 50 µM ([1]; Severe acute respiratory syndrome coronavirus 2, 50 μM, Table 3, read-out: Percent Inhibition of fusion of SARS-CoV-2 spike pseudotyped lentivirus with HEK293-ACE2 cells): 57%
inhibition at 100 µM ([1]; Severe acute respiratory syndrome coronavirus 2, 100 μM, Table 3, read-out: Percent Inhibition of fusion of SARS-CoV-2 spike pseudotyped lentivirus with HEK293-ACE2 cells): 73%
inhibition at 10 µM ([1]; Severe acute respiratory syndrome coronavirus 2, HEK293, 10 μM, Table 2, read-out: Percent (%) Inhibition of Pseudo virus Entry in HEK293 Kidney Cells, SARS-COV-2): 50%
inhibition at 100 µM ([1]; Severe acute respiratory syndrome coronavirus 2, HEK293, 100 μM, Table 2, read-out: Percent (%) Inhibition of Pseudo virus Entry in HEK293 Kidney Cells, SARS-COV-2): ≤ 100%
Concentration at Maximum % Inhibition (SARS-CoV-2 USA_WA1/2020 [2]; Example C (Table 3)): 37.5 µM
Maximum Inhibition (SARS-CoV-2 USA_WA1/2020 [2]; Example C (Table 3)): 72.39%
IC50 (SARS-CoV-2 USA_WA1/2020 [2]; Severe acute respiratory syndrome coronavirus 2, Vero C1008, Example C (Table 3), read-out: IC 50 against SARS-COV-2 Induced Cytopathic Effect in Vero E6 Cells): ~31.6 µM
IC50 (SARS-CoV-2 USA_WA1/2020 [2]; Severe acute respiratory syndrome coronavirus 2, Vero C1008, Vero E6, Example B, highest concentration tested 30 μM, read-out: IC50 against SARS-CoV-2 infection induced CPE): ~21.7 µM
inhibition at 30 µM (SARS-CoV-2 USA_WA1/2020 [2]; Severe acute respiratory syndrome coronavirus 2, Vero C1008, at 30 μM, Example B, read-out: inhibition of SARS-CoV-2 induced CPE at maximum concentration): ~91.1%
EC50 (SARS-CoV-2 USA_WA1/2020 [2]; Severe acute respiratory syndrome coronavirus 2, Vero C1008, read-out: EC50 values against SARS-CoV-2 (summary statement)): ~30 µM
effect on Spike (RBD)-rhACE2 interaction ([3]; 100 μM to 100 nM, hydrochloride): enhanced the interaction at higher concentrations; also recorded: increased the binding of ACE2 and RBD at high concentrations of 100 and 50 μM but blocked the interaction at low concentrations
IC50 ([3]; highest tested 100 μM, read-out: Estimated Relative IC50 against rhACE2 and RBD Interaction Assay, IC50_2): 42.9 µM
IC50 ([3]; read-out: Estimated Relative IC50 against rhACE2 and RBD Interaction Assay, IC50_1): 1.19 µM
effect on exopeptidase activity of ACE (ACE1 [4]): inhibited; also recorded: showed activity against ACE1
change of ACE1 expression (ACE1 [5]): no changes
change of ACE2 expression (ACE2): no changes
change of ACE2 expression (ACE2; listed as BBH): does not affect
percent minimum viability (Vero E6 cells): 103.87%
Overall Gmean Days 1-4, N2 gRNA, rectal swabs (SARS-CoV-2 USA_WA1/2020 [6]): 1.00E+05 copies/swab
Overall Gmean Days 1-4 higher than Group 3, N2 gRNA, rectal swabs (SARS-CoV-2 USA_WA1/2020 [6]): 2 fold
Peak viral load versus Group 3, N2 gRNA, rectal swabs (SARS-CoV-2 USA_WA1/2020 [6]): similar
SARS-CoV-2 genome load, N2 gRNA, lungs (SARS-CoV-2 USA_WA1/2020 [6]; Day 4): 6.20E+09 copies/gram
SARS-CoV-2 genome load, N2 gRNA, trachea (SARS-CoV-2 USA_WA1/2020 [6]; Day 4): 1.21E+09 copies/gram
active replication load higher than Group 3, E sgRNA, lungs (SARS-CoV-2 USA_WA1/2020 [6]; Day 4): 3 fold
active replication load, E sgRNA, lungs (SARS-CoV-2 USA_WA1/2020 [6]; Day 4): 4.41E+07 copies/gram
active replication load, E sgRNA, nasal turbinate (SARS-CoV-2 USA_WA1/2020 [6]; Day 4): 1.67E+08 copies/gram
active replication load, E sgRNA, trachea (SARS-CoV-2 USA_WA1/2020 [6]; Day 4): 2.58E+06 copies/gram
genome load higher than Group 3, N2 gRNA, lungs (SARS-CoV-2 USA_WA1/2020 [6]; Day 4): 3 fold
replication load higher than Group 3, E sgRNA, trachea (SARS-CoV-2 USA_WA1/2020 [6]; Day 4): 2 fold
viral load higher than Group 3, N2 gRNA, trachea (SARS-CoV-2 USA_WA1/2020 [6]; Day 4): 2 fold
serum IL-6 levels versus Group 3 (SARS-CoV-2 USA_WA1/2020 [6]; Day 4, ELISA, P<0.05): significantly lower
serum TNF-α versus Group 3 (SARS-CoV-2 USA_WA1/2020 [6]; Day −1, Day 2 (P<0.05), Day 4 (P<0.001)): significantly low
serum IL-10 levels between groups (SARS-CoV-2 USA_WA1/2020 [6]; Days −1, 2, 4): No significance difference
incidence and severity of microscopic lesions versus vehicle control (SARS-CoV-2 USA_WA1/2020 [6]; lung histopathology): similar
lung viral load by TCID50 assay versus vehicle control (SARS-CoV-2 USA_WA1/2020 [6]; lung samples Day 4): No difference
SARS-CoV-2 genome load, N2 gRNA, nasal turbinate (SARS-CoV-2 USA_WA1/2020 [6]; necropsy Day 4): 3.57E+10 copies/gram
gross lesions in the lung (SARS-CoV-2 USA_WA1/2020 [6]; necropsy Day 4): reduced gross lesions in the lung
Overall Gmean Days 1-4, E sgRNA, pharyngeal swabs (SARS-CoV-2 USA_WA1/2020 [6]; AMB 500, BHH 200 mg/kg/day PO): 4.82E+04 copies/swab
Overall Gmean Days 1-4 lower than Group 3, E sgRNA, pharyngeal swabs (SARS-CoV-2 USA_WA1/2020 [6]; AMB 500, BHH 200 mg/kg/day PO): 2 fold
Overall Gmean Days 1-4 viral load lower than Group 3, N2 gRNA, pharyngeal swabs (SARS-CoV-2 USA_WA1/2020 [6]; AMB 500, BHH 200 mg/kg/day PO): 2 fold
Overall Gmean viral load Days 1-4, N2 gRNA, pharyngeal swabs (SARS-CoV-2 USA_WA1/2020 [6]; AMB 500, BHH 200 mg/kg/day PO): 4.93E+07 copies/swab
Peak viral load lower than vehicle (Group 3), N2 gRNA, pharyngeal swabs (SARS-CoV-2 USA_WA1/2020 [6]; AMB 500, BHH 200 mg/kg/day PO): 3 fold
Peak viral replication load lower than Group 3, E sgRNA, pharyngeal swabs (SARS-CoV-2 USA_WA1/2020 [6]; AMB 500, BHH 200 mg/kg/day PO): 4 fold
tolerability of administered doses (SARS-CoV-2 USA_WA1/2020 [6]; AMB 500, BHH 200 mg/kg/day PO, up to 5 days): tolerated the administered doses well
Peak viral load, N2 gRNA, pharyngeal swabs (SARS-CoV-2 USA_WA1/2020 [6]; AMB 500, BHH 200 mg/kg/day PO, peak Day 2 (AMB), Day 1 (BHH)): 4.93E+07 copies/swab
Peak viral replication load, E sgRNA, rectal swabs (SARS-CoV-2 USA_WA1/2020 [6]; peak Day 1 (AMB), Day 2 (BHH)): 4.29 copies/swab
Peak viral replication load, E sgRNA, pharyngeal swabs (SARS-CoV-2 USA_WA1/2020 [6]; peak Day 2 (AMB), Day 1 (BHH)): 2.65E+05 copies/swab
Peak viral load, N2 gRNA, rectal swabs (SARS-CoV-2 USA_WA1/2020 [6]; peak on Day 2): 1.54E+05 copies/swab
CC50 at 72 h (in vitro; 50% cytotoxic concentration (CC50), Vero E6, 72 hours, Examples A and B, highest concentration 30 μM): > 30 µM
CC50 at 72 h (in vitro; Cytotoxicity CC50, Vero E6, 72 hours, Example C (Table 4)): 58.3 µM
